The target in assay [1] is T1, Genome polyprotein (dengue virus type 2, UniProt P29990). The class given is functional, Thailand/16681/1984.
Assay [2] addresses T1, Genome polyprotein. The class given is functional, Thailand/16681/1984. This is another data set of the same source.

pIC50: −log10 of the molar value. Values joined by “and” are separate entries in the source; they are usually repeats but may differ in a detail not shown here. Equal values may be shown once.

One may read the pIC50 as the IC50 on a negative log10 scale, so that one unit is a factor of ten. Read a high pIC50 as a small IC50.

T1 sequence (P29990 1346-1475 limits assumed): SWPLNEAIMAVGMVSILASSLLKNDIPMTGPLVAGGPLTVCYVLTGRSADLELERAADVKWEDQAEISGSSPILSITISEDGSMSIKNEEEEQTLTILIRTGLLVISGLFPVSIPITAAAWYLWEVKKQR
T1 sequence (P29990 1476-2093 limits assumed): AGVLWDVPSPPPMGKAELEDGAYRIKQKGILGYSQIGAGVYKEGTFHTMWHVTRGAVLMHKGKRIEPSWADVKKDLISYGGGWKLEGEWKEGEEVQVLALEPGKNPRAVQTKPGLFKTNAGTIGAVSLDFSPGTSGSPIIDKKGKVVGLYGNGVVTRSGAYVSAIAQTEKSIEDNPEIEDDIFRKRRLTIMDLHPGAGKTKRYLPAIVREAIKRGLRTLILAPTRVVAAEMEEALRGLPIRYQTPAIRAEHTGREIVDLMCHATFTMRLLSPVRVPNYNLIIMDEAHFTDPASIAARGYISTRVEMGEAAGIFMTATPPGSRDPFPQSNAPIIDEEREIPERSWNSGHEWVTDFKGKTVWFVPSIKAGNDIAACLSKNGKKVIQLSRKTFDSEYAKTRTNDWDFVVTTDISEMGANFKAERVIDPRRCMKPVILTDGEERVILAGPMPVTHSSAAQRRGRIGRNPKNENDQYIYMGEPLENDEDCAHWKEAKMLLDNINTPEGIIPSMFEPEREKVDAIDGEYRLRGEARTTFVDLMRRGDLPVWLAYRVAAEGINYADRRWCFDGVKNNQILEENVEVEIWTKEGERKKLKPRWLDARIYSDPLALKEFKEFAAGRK

For `NCc1cccc(NC(=O)[C@@H](NC(=O)OCc2ccccc2)C2CCN(S(=O)(=O)C3CCCC3)CC2)c1`, the pIC50 against Genome polyprotein [1] and at Genome polyprotein [2] was under 4.00 throughout.

Consider `NCc1cccc(NC(=O)c2cc(Cl)cc(-n3cccc3)c2)c1`, for which the negative-log IC50 (pIC50) against Genome polyprotein [1] and on Genome polyprotein [2] was under 4.00 each time.

Regarding `Cn1ccc(COc2ccc([C@@H](NC(=O)OCc3ccccc3)C(=O)Nc3cccc(CN)c3)cc2)n1`, the pIC50 on Genome polyprotein [1] and against Genome polyprotein [2] was under 4.00 throughout.

For `NCc1cccc(NC(=O)[C@@H](NC(=O)OCc2ccccc2)C2CCN(Cc3cn[nH]c3)CC2)c1`, the pIC50 on Genome polyprotein [1] and at Genome polyprotein [2] was under 4.00 each time.

On to `Cn1nc2c(c1NC(=O)c1cc(Cl)cc(NC(=O)OCc3ccccc3)c1)CCNC2`, for which the pIC50 against Genome polyprotein [1] and against Genome polyprotein [2] was under 4.00 throughout.

As to `NCc1cccc(NC(=O)c2ccc(F)c(NC(=O)OCc3ccccc3)c2F)c1`, the pIC50 against Genome polyprotein [1] and against Genome polyprotein [2] was under 4.00 throughout.

As to `Cc1nnsc1CN1CCC([C@@H](NC(=O)OCc2ccccc2)C(=O)Nc2cccc(CN)c2)CC1`, the pIC50 against Genome polyprotein [1] and against Genome polyprotein [2] was under 4.00 in each case.

Take `N#Cc1ccc(N2CCN(Cc3c[nH]c4ccccc34)CC2)cc1`: the pIC50 on Genome polyprotein [1] and on Genome polyprotein [2] was under 4.00 in each case.

Turning to `NCc1cccc(NC(=O)[C@@H](NC(=O)OCc2ccccc2)C2CCN(Cc3cccnc3)CC2)c1`, the negative-log IC50 (pIC50) against Genome polyprotein [1] and against Genome polyprotein [2] was under 4.00 each time.

For `N#Cc1cc(Cl)cc(C(=O)Nc2cccc(CN)c2)c1`, the negative-log IC50 (pIC50) against Genome polyprotein [1] and at Genome polyprotein [2] was under 4.00 in each case.

Take `NCc1cccc(NC(=O)[C@@H](NC(=O)OCc2ccccc2)C2CCN(C(=O)c3cscn3)CC2)c1`: the pIC50 against Genome polyprotein [1] and against Genome polyprotein [2] was under 4.00 throughout.

Turning to `NCc1cccc(NC(=O)[C@@H](NC(=O)OCc2ccccc2)c2ccc(OCC3CCOCC3)cc2)c1`, the pIC50 at Genome polyprotein [1] is 4.07; at Genome polyprotein [2], under 4.00.

`NCc1cccc(NC(=O)c2cc(Cl)ccc2Oc2cccc(Cl)c2)c1`: the negative logarithm of the IC50 (pIC50) at Genome polyprotein [1] and on Genome polyprotein [2] was under 4.00 throughout.

As to `NCC12CC(NC(=O)c3cc(Cl)cc(NC(=O)OCc4ccccc4)c3)(CCO1)C2`, the pIC50 at Genome polyprotein [1] and against Genome polyprotein [2] was under 4.00 each time.

Regarding `COc1c(Cl)cc(Cl)cc1C(=O)Nc1cccc(CN)c1`, the pIC50 at Genome polyprotein [1] and at Genome polyprotein [2] was under 4.00 in each case.

Take `O=C(Cn1ccnc(N2CC[C@H](CO)C2)c1=O)NCc1ccsc1`: the negative logarithm of the IC50 (pIC50) at Genome polyprotein [1] and at Genome polyprotein [2] was under 4.00 each time.

`NS(=O)(=O)c1ccccc1N1CCN(Cc2c[nH]c3ccccc23)CC1`: the pIC50 against Genome polyprotein [1] and at Genome polyprotein [2] was under 4.00 throughout.

Turning to `NCc1cccc(NC(=O)[C@@H](NC(=O)OCc2ccccc2)c2ccc(OCc3ccccn3)cc2)c1`, the pIC50 against Genome polyprotein [1] and against Genome polyprotein [2] was under 4.00 throughout.

`C=CC[C@]1(NC(=O)c2cc(Cl)cc(NC(=O)OCc3ccccc3)c2)CCNC1`: the negative-log IC50 (pIC50) on Genome polyprotein [1] and against Genome polyprotein [2] was under 4.00 in each case.

On to `NCc1cccc(NS(=O)(=O)c2cc(Cl)cc(NC(=O)OCc3ccccc3)c2)c1`, for which the pIC50 on Genome polyprotein [1] and at Genome polyprotein [2] was under 4.00 each time.

On to `CCOC(=O)Nc1cc(Cl)cc(C(=O)Nc2cccc(CN)c2)c1`, for which the negative-log IC50 (pIC50) against Genome polyprotein [1] and against Genome polyprotein [2] was under 4.00 throughout.

Regarding `NCc1cccc(NC(=O)[C@@H](NC(=O)OCc2ccccc2)c2ccc(OCc3nc4c(s3)COCC4)cc2)c1`, the negative logarithm of the IC50 (pIC50) at Genome polyprotein [1] and on Genome polyprotein [2] was under 4.00 throughout.

Take `O=C(Nc1cc(Cl)cc(C(=O)NC[C@@]23CN[C@H](CCO2)C3)c1)OCc1ccccc1`: the negative-log IC50 (pIC50) against Genome polyprotein [1] and against Genome polyprotein [2] was under 4.00 throughout.

On to `NCCCc1ccc(F)c(NC(=O)c2cc(Cl)cc(NC(=O)OCc3ccccc3)c2)c1`, for which the pIC50 was 4.56 on Genome polyprotein [1] and 4.04 on Genome polyprotein [2].

Turning to `CC(C)OC(=O)Nc1cc(Cl)cc(C(=O)Nc2cccc(CN)c2)c1`, the negative-log IC50 (pIC50) at Genome polyprotein [1] and on Genome polyprotein [2] was under 4.00 in each case.

For the molecule `NC[C@@H](NC(=O)c1cc(Cl)cc(NC(=O)OCc2ccccc2)c1)c1ccccc1`, the pIC50 against Genome polyprotein [1] and against Genome polyprotein [2] was under 4.00 each time.

For the molecule `O=C(Nc1cc(Cl)cc(C(=O)NC[C@@H]2CNCCC2(F)F)c1)OCc1ccccc1`, the pIC50 against Genome polyprotein [1] and against Genome polyprotein [2] was under 4.00 in each case.

`NC[C@H]1C[C@@H](CNC(=O)c2cc(Cl)cc(NC(=O)OCc3ccccc3)c2)CCO1`: the negative logarithm of the IC50 (pIC50) at Genome polyprotein [1] and against Genome polyprotein [2] was under 4.00 throughout.

For the molecule `c1ccc(N2CCN(Cc3c[nH]c4ccccc34)CC2)nc1`, the pIC50 against Genome polyprotein [1] and against Genome polyprotein [2] was under 4.00 throughout.

For the molecule `c1ccc(COc2ccc3c(CN4CCC(c5cscn5)CC4)c[nH]c3c2)cc1`, the pIC50 on Genome polyprotein [1] and against Genome polyprotein [2] was under 4.00 each time.

With `CCc1[nH]c2ccccc2c1CN1CCC(c2cscn2)CC1`, the pIC50 against Genome polyprotein [1] and on Genome polyprotein [2] was under 4.00 in each case.

On to `O=C(Nc1cc(Cl)cc(C(=O)NC[C@H]2CC3(CNC3)CO2)c1)OCc1ccccc1`, for which the negative logarithm of the IC50 (pIC50) against Genome polyprotein [1] and against Genome polyprotein [2] was under 4.00 each time.

For `C[C@@]1(CNC(=O)c2cc(Cl)cc(NC(=O)OCc3ccccc3)c2)CNCCOC1`, the negative-log IC50 (pIC50) against Genome polyprotein [1] and against Genome polyprotein [2] was under 4.00 throughout.

Take `NCc1cccc(NC(=O)[C@@H](NC(=O)OCc2ccccc2)c2ccc(OC[C@H]3CCS(=O)(=O)C3)cc2)c1`: the pIC50 on Genome polyprotein [1] and against Genome polyprotein [2] was under 4.00 each time.

With `O=C(Cn1ccnc(N2CC[C@H](CO)C2)c1=O)NCc1cccs1`, the pIC50 against Genome polyprotein [1] and against Genome polyprotein [2] was under 4.00 each time.

On to `NCc1cccc(NC(=O)c2cc(Cl)cc(Cl)c2O)c1`, for which the pIC50 against Genome polyprotein [1] and at Genome polyprotein [2] was under 4.00 throughout.

Consider `O=C(Nc1cc(Cl)cc(C(=O)NC[C@@]23CC[C@H](CNC2)C3)c1)OCc1ccccc1`, for which the pIC50 against Genome polyprotein [1] and at Genome polyprotein [2] was under 4.00 each time.

In the case of `NC[C@H]1C[C@](F)(CNC(=O)c2cc(Cl)cc(NC(=O)OCc3ccccc3)c2)C1`, the pIC50 against Genome polyprotein [1] and on Genome polyprotein [2] was under 4.00 throughout.

`NCc1cccc(NC(=O)[C@@H](NC(=O)OCc2ccccc2)C2CCN(S(=O)(=O)[C@H]3CCOC3)CC2)c1`: the pIC50 against Genome polyprotein [1] and on Genome polyprotein [2] was under 4.00 throughout.

As for `CC(=O)Nc1cc(Cl)cc(C(=O)Nc2cccc(CN)c2)c1`, the negative logarithm of the IC50 (pIC50) on Genome polyprotein [1] and at Genome polyprotein [2] was under 4.00 throughout.

Turning to `NC[C@]12CC[C@](NC(=O)c3cc(Cl)cc(NC(=O)OCc4ccccc4)c3)(CO1)C2`, the pIC50 on Genome polyprotein [1] and against Genome polyprotein [2] was under 4.00 throughout.

On to `Cc1cccc(CNc2ccc(Cl)cc2C(=O)Nc2cccc(CN)c2)n1`, for which the pIC50 against Genome polyprotein [1] and on Genome polyprotein [2] was under 4.00 throughout.

Take `NCc1cccc(NC(=O)[C@@H](NC(=O)OCc2ccccc2)C2CCN(Cc3ccncc3)CC2)c1`: the negative-log IC50 (pIC50) at Genome polyprotein [1] and against Genome polyprotein [2] was under 4.00 in each case.

Regarding `CNCc1cccc(NC(=O)c2cc(Cl)cc(NC(=O)OCc3ccccc3)c2)c1`, the pIC50 against Genome polyprotein [1] is 4.09; against Genome polyprotein [2], under 4.00.

For the molecule `NCc1cccc(NC(=O)[C@@H](NC(=O)OCc2ccccc2)C2CCN(C3CCOCC3)CC2)c1`, the negative-log IC50 (pIC50) against Genome polyprotein [1] and at Genome polyprotein [2] was under 4.00 throughout.

For `O=C(Nc1cc(Cl)cc(C(=O)NC[C@H]2CCNC3(CC3)C2)c1)OCc1ccccc1`, the negative logarithm of the IC50 (pIC50) at Genome polyprotein [1] and against Genome polyprotein [2] was under 4.00 throughout.

For the molecule `Cc1ncc(COc2ccc([C@@H](NC(=O)OCc3ccccc3)C(=O)Nc3cccc(CN)c3)cc2)o1`, the pIC50 against Genome polyprotein [1] and against Genome polyprotein [2] was under 4.00 in each case.

Turning to `O=C(Nc1cc(Cl)cc(C(=O)N[C@@]23CCCCC[C@@H]2NCC3)c1)OCc1ccccc1`, the pIC50 against Genome polyprotein [1] and against Genome polyprotein [2] was under 4.00 throughout.

With `N[C@H]1CC[C@H](NC(=O)c2cc(Cl)cc(NC(=O)OCc3ccccc3)c2)C1`, the negative logarithm of the IC50 (pIC50) against Genome polyprotein [1] and on Genome polyprotein [2] was under 4.00 each time.

For `COCC(=O)N1CCC([C@@H](NC(=O)OCc2ccccc2)C(=O)Nc2cccc(CN)c2)CC1`, the pIC50 at Genome polyprotein [1] and against Genome polyprotein [2] was under 4.00 in each case.

With `Cc1nccn1-c1ccc(Cl)cc1C(=O)Nc1cccc(CN)c1`, the pIC50 against Genome polyprotein [1] and at Genome polyprotein [2] was under 4.00 throughout.

Take `CC(C)S(=O)(=O)N1CCC([C@@H](NC(=O)OCc2ccccc2)C(=O)Nc2cccc(CN)c2)CC1`: the negative-log IC50 (pIC50) against Genome polyprotein [1] and against Genome polyprotein [2] was under 4.00 throughout.

On to `O=C(Nc1cc(Cl)cc(C(=O)Nc2ccc3c(c2)CNCCO3)c1)OCc1ccccc1`, for which the pIC50 on Genome polyprotein [1] and against Genome polyprotein [2] was under 4.00 throughout.

For the molecule `O=C(Nc1cc(Cl)cc(C(=O)NC[C@H]2CNC3(CC3)CO2)c1)OCc1ccccc1`, the pIC50 on Genome polyprotein [1] and against Genome polyprotein [2] was under 4.00 throughout.

On to `O=C(Nc1cc(Cl)cc(C(=O)NC2([C@H]3CCNC3)CC2)c1)OCc1ccccc1`, for which the pIC50 against Genome polyprotein [1] and against Genome polyprotein [2] was under 4.00 each time.

For `O=C(Nc1cc(Cl)cc(C(=O)Nc2nccn2C2CNC2)c1)OCc1ccccc1`, the negative logarithm of the IC50 (pIC50) against Genome polyprotein [1] and against Genome polyprotein [2] was under 4.00 in each case.

Take `NCc1cccc(NC(=O)[C@@H](NC(=O)OCc2ccccc2)c2ccc(OCCN3CCCCC3)cc2)c1`: the negative-log IC50 (pIC50) against Genome polyprotein [1] and at Genome polyprotein [2] was under 4.00 throughout.

Consider `CCc1ccc([C@@H](CC(=O)Nc2cccc(CN)c2)NC(=O)OCc2ccccc2)cc1Br`, for which the pIC50 against Genome polyprotein [1] is 4.78 and 4.65; on Genome polyprotein [2] it was 4.07.

On to `NCc1cccc(NC(=O)[C@@H](NC(=O)OCc2ccccc2)c2ccc(OCc3cnccn3)cc2)c1`, for which the negative logarithm of the IC50 (pIC50) against Genome polyprotein [1] and at Genome polyprotein [2] was under 4.00 in each case.

As to `NCc1cc(F)cc(NC(=O)c2cc(Cl)cc(NC(=O)OCc3ccccc3)c2)c1`, the negative-log IC50 (pIC50) against Genome polyprotein [1] and against Genome polyprotein [2] was under 4.00 throughout.

For `Cn1nc2c(c1NC(=O)c1cc(Cl)cc(NC(=O)OCc3ccccc3)c1)CNCC2`, the pIC50 on Genome polyprotein [1] is 4.22; at Genome polyprotein [2] it was under 4.00.

Take `NC[C@]1(F)C[C@@H](NC(=O)c2cc(Cl)cc(NC(=O)OCc3ccccc3)c2)C1`: the pIC50 at Genome polyprotein [1] is 4.18; on Genome polyprotein [2], under 4.00.

Regarding `NS(=O)(=O)c1cccc(N2CCN(Cc3c[nH]c4ccccc34)CC2)c1`, the pIC50 at Genome polyprotein [1] and at Genome polyprotein [2] was under 4.00 in each case.

Take `Cc1csc(N2CCN(Cc3c[nH]c4ccccc34)CC2)n1`: the negative-log IC50 (pIC50) at Genome polyprotein [1] and against Genome polyprotein [2] was under 4.00 in each case.

`C[C@@H](N)c1cccc(NC(=O)c2cc(Cl)cc(NC(=O)OCc3ccccc3)c2)c1`: the negative logarithm of the IC50 (pIC50) is 4.09 against Genome polyprotein [1] and under 4.00 against Genome polyprotein [2].
